Columns and labels:
[1] = BACE cell assay: soluble Amyloid Beta 1-40 (Aβ 1-40) in culture media of H4-APPsw cells; type: cell-based; conditions: in vitro cell activity, H4-APPsw cells, secreted Aβ 1-40, overnight treatment; read-out: IC50
Procedure: H4 neuroglioma cell line that stably expresses Amyloid Precursor Protein (APP) containing the KM-NL Swedish mutation (H4-APPsw) was generated. For the assay, cells are treated overnight in the presence of inhibitor and the culture media are subjected to ELISA analysis of soluble Amyloid Beta 1-40 (Aβ 1-40).
H4 neuroglioma cell line was cultured in DMEM with 10% FBS and 1% penicillin/streptomycin (Culture Medium) at 37° C., 5% CO2. […] 24 hrs after transfection, the cells were replaced into three new plates (150 mm) in fresh Culture Medium with 250 ug/ml Zeocin. […] The levels of APPsw expression were analyzed by immunoblotting and the production of Aβ 1-40 was detected by ELISA of culture supernatants. The selected clones are maintained in Culture Medium with 250 μg/ml Zeocin and routinely split in 3-4 days to maintain 20-80% confluence.
Split cells. Split H4-APPsw cells in Culture Medium and culture overnight such that cells will be ˜80% confluent next morning.
Create Compound Dilution Plate. After determining the desired final concentration of compound to be tested, create a 500× dilution plate. Add DMSO, but not inhibitor, to each well of Column 1. […] Add compounds of interest at 500× desired final concentration to wells A3-A10. Add DMSO, but not inhibitor, to each well of Columns 11 and 12. Dilute contents of Row A 1:3 in Row B. then continue through Rows C—H.
Create Media Plate. To create a 2× solution of compound in media, add 996 μL Culture Medium to each well of a 96-well 2 ml deep well plate (Media Plate) in biosafety hood. Add 4 μL 5 mM control compound to Media Plate wells A1-D1 for determination of full inhibition.
Add media to Cell Plate. With a multichannel pipettor, mix each well of Media Plate several times to insure homogeneity. Add 100 μL of mixture to Black polymer bottom P-D-L plates. Next, place Medium Plate and Cell Plate in the incubator.
Add cells to Cell Plate. Trypsinize and count H4-APPsw cells. Dilute cells 6×10^5 cells/ml in Culture Medium and remove Cell Plate from incubator. Vortex cells to homogeneity, then using a multichannel repeating pipettor, add 100 μL cell suspension to Cell Plate, adding cells from Row H to Row A. Place Cell Plate in incubator.
Change media in Cell Plate. After 5 h, check Cell Plate by microscope to insure cells are attached. In culture hood, remove media from Cell Plate using multichannel repeating pipettor. Add 100 μl Culture Medium to each well. Remove Media Plate from incubator and mix with pipettor as previous. Add 100 μl from each well of Media Plate to corresponding well in Cell Plate. Place Cell Plate in incubator overnight.
Perform ELISA to determine levels of secreted Aβ 1-40. After 16 h incubation, spin Cell Plate for 8 min at 1200 rpm. The primary reading of Aβ 1-40 levels is done using PerkinElmer AlphaLISA technology. Follow the manufacturer's protocol for performing AlphaLISA in a white ½ area Optiwell plate using Row 12 for peptide standard (1:2 dilutions, starting at 15 ng/ml). Data are acquired using PerkinElmer Fusion-Alpha FP-HT, Alpha protocol (Count Time 0.6 s, Count Time Ratio 30%:70%).
Export data from Fusion using Columnar Report format into a separate file for each plate. Upload data into Activity Base using RIA-DOSE-RESPONSE protocol (Version 1). Data from at least eight doses were fitted to a four parameter logistical model using XLfit software to determine potency.

[2] = biological target: T1, truncated human beta-secretase (residues 1-458, His6-tagged at the C-terminus) (Homo sapiens, UniProt P56817); assay: BACE fluorescence quench assay; type: biochemical; conditions: in vitro enzyme activity, BACE fluorescence assay, pH 4.5; read-out: IC50
T1 construct: truncated human beta-secretase (residues 1-458, His6-tagged at the C-terminus); His6 (C); made in house; host or cells: insect cells D. melanogaster S2 (baculovirus expression system (so in the source))
T1 sequence (P56817 22-458): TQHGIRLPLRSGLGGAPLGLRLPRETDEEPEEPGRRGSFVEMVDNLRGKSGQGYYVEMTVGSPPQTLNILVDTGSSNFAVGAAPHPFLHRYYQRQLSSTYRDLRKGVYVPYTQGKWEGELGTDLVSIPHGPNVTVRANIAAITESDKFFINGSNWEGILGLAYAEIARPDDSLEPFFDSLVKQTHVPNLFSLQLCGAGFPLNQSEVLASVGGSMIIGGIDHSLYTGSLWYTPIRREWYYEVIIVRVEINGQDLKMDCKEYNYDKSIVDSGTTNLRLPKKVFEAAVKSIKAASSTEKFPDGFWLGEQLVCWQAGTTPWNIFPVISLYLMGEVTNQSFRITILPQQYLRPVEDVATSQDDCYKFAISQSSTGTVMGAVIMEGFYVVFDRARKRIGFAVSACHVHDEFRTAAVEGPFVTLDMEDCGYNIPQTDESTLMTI

| IC50 [1] [nM] | IC50 [2] [nM] | SMILES |
| --- | --- | --- |
| 5000 to 10000 | 100 to 500 | CN1O[C@]2(C[C@H]([C@H]3CCCOC3)Oc3ccc(-c4cc(F)cc(F)c4)cc32)N=C1N (racemic) [Compound 316, (±)-(2S,4R)-6-(3,5-difluorophenyl)-2′-methyl-2-((R)-tetrahydro-2H-pyran-3-yl)-2′H-spiro[chroman-4,5′-[1,2,4]oxadiazol]-3′-amine] |
| 5000 to 10000 | 100 to 500 | CN1O[C@]2(C[C@H]([C@@H]3CCCOC3)Oc3ccc(-c4cc(F)cc(F)c4)cc32)N=C1N (racemic) [Compound 322, (2S,4R/2R,4S)-6-(3,5-difluorophenyl)-2′-methyl-2-((S/R)-tetrahydro-2H-pyran-3-yl)-2′H-spiro[chroman-4,5′-[1,2,4]oxadiazol]-3′-amine] |
| 1000 to 5000 | 100 to 500 | CN1O[C@]2(C[C@@H]([C@@H]3CCCOC3)Oc3ccc(-c4cc(F)cc(F)c4)cc32)N=C1N (racemic) [Compound 323, (±)-(2S,4S)-6-(3,5-difluorophenyl)-2′-methyl-2-((R)-tetrahydro-2H-pyran-3-yl)-2′H-spiro[chroman-4,5′-[1,2,4]oxadiazol]-3′-amine] |
| 1000 to 5000 | 1000 to 5000 | CN1OC2(CC3(CC4CCC3OC4)Oc3ccc(-c4cccc(C#N)c4)cc32)N=C1N (single isomer, unassigned) [Compound 379] |
| 5000 to 10000 | 1000 to 5000 | CN1OC2(C[C@]3(CC4CCC3OC4)Oc3ccc(-c4cccc(C#N)c4)cc32)N=C1N (single isomer, unassigned) [Compound 403] |
| 5000 to 10000 | 1000 to 5000 | CN1OC2(C[C@@]3(CC4CCC3OC4)Oc3ccc(-c4cccc(C#N)c4)cc32)N=C1N (single isomer, unassigned) [Compound 408] |
| 1000 to 5000 | 100 to 500 | CN1C(=O)C2(C[C@@H](C3CCCc4ccccc43)Oc3ccc(-c4cccc(C#N)c4)cc32)N=C1N (stereo in doubt) [Compound 282, 3-(2′-amino-1′-methyl-5′-oxo-2-(1,2,3,4-tetrahydronaphthalen-1-yl)-1′,5′-dihydrospiro[chroman-4,4′-imidazole]-6-yl)benzonitrile] |
| 5000 to 10000 | 100 to 500 | CN1C(=O)C2(CC([C@H]3CCCc4ccccc43)Oc3ccc(-c4cccc(C#N)c4)cc32)N=C1N (stereo in doubt) [Compound 335, 3-(2′-amino-1′-methyl-5′-oxo-2-(1,2,3,4-tetrahydronaphthalen-1-yl)-1′,5′-dihydrospiro[chroman-4,4′-imidazole]-6-yl)benzonitrile] |
| 1000 to 5000 |  | CN1OC2(CC(C3CCOC(C)(C)C3)Oc3ccc(-c4cccc(Cl)c4)cc32)N=C1N (stereo not drawn) [Compound 264] |
| 1000 to 5000 |  | CC(C)C#Cc1ccc2c(c1)C1(CC3(CCCc4ccccc4C3)O2)N=C(N)N(C)O1 (stereo not drawn) [Compound 265] |
| 1000 to 5000 |  | CN1O[C@]2(C[C@@]3(CCCc4ccccc43)Oc3ccc(-c4cccc(C#N)c4)cc32)N=C1N [Compound 266] |
| 100 to 500 |  | CN1C(=O)C2(CC(C3CCCOC3)Oc3ccc(-c4cc(F)cc(F)c4)cc32)N=C1N (stereo not drawn) [Compound 267] |
| 5000 to 10000 |  | CN1OC2(CC(C3CCCc4ccccc43)Oc3ccc(-c4cc(F)cc(C(F)(F)F)c4)cc32)N=C1N (stereo not drawn) [Compound 269] |
| 500 to 1000 |  | CN1C(=O)[C@@]2(C[C@@]3(CCCOC3)Oc3ccc(-c4cc(F)cc(Cl)c4)cc32)N=C1N [Compound 270] |
| 500 to 1000 |  | COc1cc(F)cc(-c2ccc3c(c2)[C@]2(C[C@]4(CCCOC4)O3)N=C(N)N(C)C2=O)c1 [Compound 271] |
| 500 to 1000 |  | C[C@H]1CC[C@]2(CO1)CC1(N=C(N)N(C)O1)c1cc(-c3cccc(C#N)c3)ccc1O2 (stereo partly drawn) [Compound 272, 3-(3″-amino-2″-methyl-4″,5″-dihydro-2″H-spiro(spiro(chroman-2,3′-[(2R,6R/2S,6S)-2,4,5,6-tetrahydro-6-methyl-pyran])-(4R/4S)-4,5″-[1,2,4]oxadiazole)-6-yl)benzonitrile] |
| 500 to 1000 |  | CN1C(=O)C2(CC(C3CCCOC3)Oc3ccc(-c4cccc(F)c4)cc32)N=C1N (stereo not drawn) [Compound 273] |
| 1000 to 5000 |  | COc1cc(Cl)cc(-c2ccc3c(c2)C2(CC4(CCC(C)OC4)O3)N=C(N)N(C)O2)c1 (stereo not drawn) [Compound 274] |
| 500 to 1000 |  | C[C@@H]1CC[C@@]2(CO1)CC1(N=C(N)N(C)O1)c1cc(-c3cccc(C#N)c3)ccc1O2 (stereo partly drawn) [Compound 275, 3-(3″-amino-2″-methyl-4″,5″-dihydro-2″H-spiro(spiro(chroman-2,3′-[(2R,6R/2S,6S)-2,4,5,6-tetrahydro-6-methyl-pyran])-(4S/4S)-4,5″-[1,2,4]oxadiazole)-6-yl)benzonitrile] |

| IC50 [1] [nM] | IC50 [2] [nM] | SMILES |
| --- | --- | --- |
| 500 to 1000 |  | Cc1cc(C)cc(-c2ccc3c(c2)[C@]2(C[C@]4(CCCOC4)O3)N=C(N)N(C)C2=O)c1 [Compound 276] |
| 100 to 500 |  | Cc1ccc(C#N)cc1-c1ccc2c(c1)[C@]1(C[C@]3(CCCOC3)O2)N=C(N)N(C)C1=O [Compound 277] |
| 5000 to 10000 |  | COc1cc(Cl)cc(-c2ccc3c(c2)C2(CC(C4CCCc5ccccc54)O3)N=C(N)N(C)O2)c1 (stereo not drawn) [Compound 278] |
| 1000 to 5000 | 100 to 500 | CN1O[C@@]2(C[C@@H](C3CCOc4ccccc43)Oc3ccc(-c4cccc(C#N)c4)cc32)N=C1N (stereo partly drawn) [Compound 279] |
| 100 to 500 | 100 to 500 | CN1C(=O)[C@@]2(C[C@]3(CCCOC3)Oc3ccc(-c4cc(F)cc(F)c4F)cc32)N=C1N [Compound 280] |
| 100 to 500 | 100 to 500 | COc1cc(OC)cc(-c2ccc3c(c2)[C@]2(C[C@]4(CCCOC4)O3)N=C(N)N(C)C2=O)c1 [Compound 283] |
| 100 to 500 | 100 to 500 | CN1C(=O)C2(CC3(CCCOC3)Oc3ccc(-c4cc(F)cc(Cl)c4)cc32)N=C1N (stereo not drawn) [Compound 286] |
| 100 to 500 | 100 to 500 | Cc1ccc(F)cc1-c1ccc2c(c1)[C@]1(C[C@]3(CCCOC3)O2)N=C(N)N(C)C1=O [Compound 287] |
| 100 to 500 | 100 to 500 | CN1C(=O)C2(CC3(CCCOC3)Oc3ccc(-c4cc(C#N)ccc4F)cc32)N=C1N (stereo not drawn) [Compound 288] |
| 500 to 1000 | 100 to 500 | CN1C(=O)C2(CC3(CCCOC3)Oc3ccc(-c4cccc(Cl)c4)cc32)N=C1N (stereo not drawn) [Compound 290] |
| 1000 to 5000 | 100 to 500 | CN1O[C@]2(C[C@H]([C@H]3CCOC(C)(C)C3)Oc3ccc(-c4cccc(C#N)c4)cc32)N=C1N [Compound 293] |
| 1000 to 5000 | 100 to 500 | CN1OC2(CC(C3CCOC(C)(C)C3)Oc3ccc(-c4cccc(Br)c4)cc32)N=C1N (stereo not drawn) [Compound 294] |
| 1000 to 5000 | 100 to 500 | CN1OC2(C[C@H]([C@H]3CCOC(C)(C)C3)Oc3ccc(-c4cc(F)cc(Cl)c4)cc32)N=C1N (stereo partly drawn) [Compound 295] |
| 1000 to 5000 | 100 to 500 | CN1OC2(CC(C3CCOC(C)(C)C3)Oc3ccc(-c4cccc(C(F)(F)F)c4)cc32)N=C1N (stereo not drawn) [Compound 297] |
| 1000 to 5000 | 100 to 500 | CC1CC[C@]2(CO1)C[C@]1(N=C(N)N(C)O1)c1cc(-c3cc(F)cc(Cl)c3)ccc1O2 (stereo partly drawn) [Compound 298] |
| 1000 to 5000 | 100 to 500 | CN1OC2(C[C@H]([C@@H]3CCOC(C)(C)C3)Oc3ccc(-c4cc(F)cc(Cl)c4)cc32)N=C1N (stereo partly drawn) [Compound 299] |
| 1000 to 5000 | 100 to 500 | CC1CC[C@]2(CO1)C[C@]1(N=C(N)N(C)O1)c1cc(-c3cccc(Cl)c3)ccc1O2 (stereo partly drawn) [Compound 303] |
| 5000 to 10000 | 100 to 500 | CN1OC2(C[C@@H](C34CCC(CC3)OC4)Oc3ccc(-c4cccc(C#N)c4)cc32)N=C1N (stereo partly drawn) [Compound 305] |

Source: patent US8450308B2 (Vitae Pharmaceuticals, Inc., priority 2008, dated 2013)
